What was measured:
Format in all cases: cell-based
[1] = system: multi-species biofilm (beneficial/commensal species, periodontal pathogens, cariogenic pathogens); assay: Multi-species biofilm composition, relative proportions and group changes
Description: Biofilms are grown vertically on Calcium Deficient Hydroxyapatite (CAD-HA) disks (Hitemco Medical, Old Bethpage, USA) using the Amsterdam Active Adhesion model. […] After this 24 h, disks are rinsed 3 times a day for 3 minutes (RT, 250 rpm), for 3 consecutive days, by transferring the lid containing the disks to a new 24-well plate containing 2 mL/well of the appropriate substrate solution. As a negative control, PBS (pH 5.7) without substrate supplementation is used. N-acetyl-D-glucosamine (NADG), α-D-lactose, D-(+)-trehalose and D-(+)-raffinose are selected to determine their effects on multi-species biofilm composition. Repeated rinsing of the biofilms with the substrates at a concentration of 1 M results in a significant decrease in absolute numbers in at least four of the pathogenic bacterial species tested in the assay, in comparison to the control, the results of which are described in Table 1 below. Note, NADG decreased absolute numbers of S. sobrinus. Absolute abundances of bacterial species are shown as mean ± SD (n = 3) logarithmic values of the genome equivalents per millilitre (log(Geq/mL)).

[2] = system: P. intermedia virulence genes; assay: Virulence gene expression in multi-species biofilm (SYBR RT-qPCR); details: for fold change in DnaJ expression, geometric mean (95% C.I.) / fold change in DnaK expression, geometric mean (95% C.I.) / fold change in ECF expression, geometric mean (95% C.I.) / fold change in GroES expression, geometric mean (95% C.I.) / fold change in HtpG expression, geometric mean (95% C.I.) / fold change in KpsD expression, geometric mean (95% C.I.) / fold change in adpc expression, geometric mean (95% C.I.) / fold change in clpB expression, geometric mean (95% C.I.) / fold change in inpA expression, geometric mean (95% C.I.) / fold change in phg expression, geometric mean (95% C.I.): relative to control = 1
Description: (§1) Biofilms are grown vertically on Calcium Deficient Hydroxyapatite (CAD-HA) disks (Hitemco Medical, Old Bethpage, USA) using the Amsterdam Active Adhesion model. Biofilms are allowed to establish during 24 h (37° C., 170 rpm) under microaerophilic conditions (6% O2, 7% CO2, 7% H2, 80% N2). After this 24 h, disks are rinsed 3 times a day for 3 minutes (RT, 250 rpm), for 3 consecutive days, by transferring the lid containing the disks to a new 24-well plate containing 2 mL/well of the appropriate substrate solution. As a negative control, PBS (pH 5.7) without substrate supplementation is used.
The virulence of the substrate-treated multi-species biofilms are evaluated by analyzing the relative expression of 33 genes that are recognized as being related to some form of virulence and from 4 periodontal pathogens.
Expression of bacterial virulence genes is analyzed through SYBR RT-qPCR and normalized for bacterial housekeeping gene expression. […] These effects are illustrated in Tables 6a and 6b:
Note, for Table 6d, fold changes in virulence gene expression are determined relatively to the control condition through the 2^^-ΔΔCt method and are shown as the geometric mean (C.I.) (n = 3) of the 2^^-ΔΔCt values. All substrates are dissolved in PBS at a concentration of 1 M (upper part) or 1%(w/v) (lower part). Values between 0 and 1 represent relative downregulation, values >1 represent relative upregulation. […] NADG: N-acetyl-D-glucosamine; C.I.: 95% confidence interval.

S. sobrinus = assay: Multi-species biofilm composition, absolute abundance (Geq/mL); details: repeated rinsing
Description: as §1
(§2) N-acetyl-D-glucosamine (NADG), α-D-lactose, D-(+)-trehalose and D-(+)-raffinose are selected to determine their effects on multi-species biofilm composition. Repeated rinsing of the biofilms with the substrates at a concentration of 1 M results in a significant decrease in absolute numbers in at least four of the pathogenic bacterial species tested in the assay, in comparison to the control, the results of which are described in Table 1 below. Note, NADG decreased absolute numbers of S. sobrinus. Absolute abundances of bacterial species are shown as mean ± SD (n = 3) logarithmic values of the genome equivalents per millilitre (log(Geq/mL)).

S. mitis = assay: as above; details: repeated rinsing
Description: as §1, §2

P. gingivalis = assay: as above; details: repeated rinsing
Description: as §1, §2

P. intermedia = assay: as above; details: repeated rinsing
Description: as §1, §2

A. actinomycetemcomitans = assay: as above; details: repeated rinsing
Description: as §1, §2

S. oralis = assay: as above; details: for absolute abundance of S. oralis, mean ± SD log (Geq/mL): repeated rinsing
Description: as §1, §2

A. naeslundii = assay: as above; details: repeated rinsing
Description: as §1, §2

S. gordonii = assay: as above; details: repeated rinsing
Description: as §1, §2

[3] = Table 1a, substrate 1 M, listed as D-(+)-raffinose
[4] = Table 3, separate experiments, concentration not given
[5] = lower part of Table 6d, head prints 1 M (lower part 1%(w/v))
[6] = upper part of Table 6d, substrate 1 M, n = 3

OC[C@H]1O[C@H](OC[C@H]2O[C@H](O[C@]3(CO)O[C@H](CO)[C@@H](O)[C@@H]3O)[C@H](O)[C@@H](O)[C@@H]2O)[C@H](O)[C@@H](O)[C@H]1O [D-raffinose, D-(+)-raffinose]
relative proportion of beneficial or commensal species in biofilm ([1]; Table 1a, substrate 1 M): 95.86 (+/- 1.63)^∗ % (Geq/mL) | relative proportion of cariogenic pathogens in biofilm ([1]; Table 1a, substrate 1 M): 1.85 (+/- 0.68) % (Geq/mL) | relative proportion of periodontal pathogens in biofilm ([1]; Table 1a, substrate 1 M): 2.29 (+/- 1.40)^∗ % (Geq/mL) | relative proportion of beneficial or commensal species in biofilm [1, 3]: 95.86±1.63 % (Geq/mL) | relative proportion of cariogenic pathogens in biofilm [1, 3]: 1.85±0.68 % (Geq/mL) | relative proportion of periodontal pathogens in biofilm [1, 3]: 2.29±1.40 % (Geq/mL) | relative proportion of beneficials/commensals in biofilm [1, 4]: 64.27 (+/- 1.84) % (Geq/mL) | relative proportion of cariogenic pathogens in biofilm [1, 4]: 0.27 (+/- 0.09) % (Geq/mL) | relative proportion of periodontal pathogens in biofilm [1, 4]: 35.46 (+/- 1.82) % (Geq/mL) | fold change in DnaJ expression, geometric mean (95% C.I.) [2, 5]: 1.56 (0.59-4.12) fold | fold change in DnaK expression, geometric mean (95% C.I.) [2, 5]: 1.76 (0.61-5.06) fold | fold change in ECF expression, geometric mean (95% C.I.) [2, 5]: 0.96 (0.56-1.64) fold | fold change in GroES expression, geometric mean (95% C.I.) [2, 5]: 0.98 (0.24-4.05) fold | fold change in HtpG expression, geometric mean (95% C.I.) [2, 5]: 0.67 (0.43-1.04) fold | fold change in KpsD expression, geometric mean (95% C.I.) [2, 5]: 0.90 (0.58-1.40) fold | fold change in adpc expression, geometric mean (95% C.I.) [2, 5]: 0.85 (0.23-3.13) fold | fold change in clpB expression, geometric mean (95% C.I.) [2, 5]: 1.13 (0.86-1.48) fold | fold change in inpA expression, geometric mean (95% C.I.) [2, 5]: 0.98 (0.64-1.52) fold | fold change in phg expression, geometric mean (95% C.I.) [2, 5]: 0.73 (0.33-1.63) fold | impact on P. intermedia virulence gene expression ([2]; substrate 1% (w/v)): limited impact | downregulation of P. intermedia virulence gene expression ([2]; substrate 1 M): 3 fold | fold change in DnaJ expression, geometric mean (95% C.I.) [2, 6]: 1.76 (0.92-3.37) fold | fold change in DnaK expression, geometric mean (95% C.I.) [2, 6]: 10.07 (6.81-14.89)^∗ fold | fold change in ECF expression, geometric mean (95% C.I.) [2, 6]: 6.74 (1.96-23.20)^∗ fold | fold change in GroES expression, geometric mean (95% C.I.) [2, 6]: 10.59 (4.96-22.60)^∗ fold | fold change in HtpG expression, geometric mean (95% C.I.) [2, 6]: 1.90 (0.99-3.67)^∗ fold | fold change in KpsD expression, geometric mean (95% C.I.) [2, 6]: 1.78 (0.71-4.45) fold | fold change in adpc expression, geometric mean (95% C.I.) [2, 6]: 1.02 (0.40-2.60) fold | fold change in clpB expression, geometric mean (95% C.I.) [2, 6]: 2.21 (1.53-3.21) fold | fold change in inpA expression, geometric mean (95% C.I.) [2, 6]: 1.39 (0.67-2.90) fold | fold change in phg expression, geometric mean (95% C.I.) [2, 6]: 0.33 (0.21-0.50)^∗ fold | absolute abundance of S. sobrinus, mean ± SD log (Geq/mL) (S. sobrinus; substrate 1% (w/v)): 5.36 ± 0.20 log (Geq/mL) | absolute abundance of S. sobrinus, mean ± SD log (Geq/mL) (S. sobrinus; substrate 1 M in PBS, n = 3): 7.06 ± 0.15 log (Geq/mL) | absolute abundance of S. mitis, mean ± SD log (Geq/mL) (S. mitis; substrate 1% (w/v)): 2.65 ± 0.00 log (Geq/mL) | absolute abundance of S. mitis, mean ± SD log (Geq/mL) (S. mitis; substrate 1 M in PBS, n = 3): 3.58 ± 1.31 log (Geq/mL) | absolute abundance of P. gingivalis (Pg), mean ± SD log (Geq/mL) (P. gingivalis; substrate 1% (w/v)): 6.94 ± 0.21 log (Geq/mL) | absolute abundance of P. gingivalis (Pg), mean ± SD log (Geq/mL) (P. gingivalis; substrate 1 M in PBS, n = 3): 4.59 ± 0.45^∗ log (Geq/mL) | absolute abundance of P. intermedia (Pi), mean ± SD log (Geq/mL) (P. intermedia; substrate 1% (w/v)): 7.83 ± 0.32 log (Geq/mL) | absolute abundance of P. intermedia (Pi), mean ± SD log (Geq/mL) (P. intermedia; substrate 1 M in PBS, n = 3): 5.21 ± 0.77^∗ log (Geq/mL) | absolute abundance of A. actinomycetemcomitans (Aa), mean ± SD log (Geq/mL) (A. actinomycetemcomitans; substrate 1% (w/v)): 9.14 ± 0.12 log (Geq/mL) | absolute abundance of A. actinomycetemcomitans (Aa), mean ± SD log (Geq/mL) (A. actinomycetemcomitans; substrate 1 M in PBS, n = 3): 8.30 ± 0.29^∗ log (Geq/mL) | decrease in S. oralis numbers in comparison to the control (S. oralis; substrate 1% (w/v)): ~ 0.9 log(Geq/mL) | absolute abundance of S. oralis, mean ± SD log (Geq/mL) (S. oralis; substrate 1% (w/v)): 5.98 ± 0.18^∗ log (Geq/mL) | absolute abundance of S. oralis, mean ± SD log (Geq/mL) (S. oralis; substrate 1 M in PBS, n = 3): 8.52 ± 0.17^∗ log (Geq/mL) | absolute abundance of A. naeslundii (An), mean ± SD log (Geq/mL) (A. naeslundii; substrate 1% (w/v)): 7.62 ± 0.08 log (Geq/mL) | absolute abundance of A. naeslundii (An), mean ± SD log (Geq/mL) (A. naeslundii; substrate 1 M in PBS, n = 3): 5.32 ± 0.25^∗ log (Geq/mL) | absolute abundance of S. gordonii, mean ± SD log (Geq/mL) (S. gordonii; substrate 1% (w/v)): 8.12 ± 0.06 log (Geq/mL) | absolute abundance of S. gordonii, mean ± SD log (Geq/mL) (S. gordonii; substrate 1 M in PBS, n = 3): 8.93 ± 0.31 log (Geq/mL)
